Test results taken from the NIST ThermoML archive (doi:10.1016/j.fluid.2005.02.014).
Numbers after ± are expanded uncertainties.

Details: Liquid; for mass density: 298.15 K, 101.33 kPa

Structure (SMILES) | mass density (Vibrating tube method) | Normal boiling temperature | mass density
C1CCOCC1 [tetrahydropyran] | 878.8 ± 0.5 kg/m3 | 88.08 ± 0.26 °C | –
CC(C)CCl [1-chloro-2-methylpropane] | – | 68.90 ± 0.26 °C | 870.94 ± 0.99 kg/m3
CCCCCl [1-chlorobutane] | – | 78.37 ± 0.26 °C | 880.67 ± 0.6 kg/m3
CCC(C)Cl (stereo not given) [2-chlorobutane] | – | 68.11 ± 0.26 °C | 867.26 ± 0.62 kg/m3
CC(C)(C)Cl [2-chloro-2-methylpropane] | – | 50.73 ± 0.26 °C | 836.45 ± 0.65 kg/m3
